Experimental data taken from paper PMC6562543 (Marine Drugs, 2019).

Tests used:
[1] = rat, in vivo, cited from earlier work
mice [2] = settings: mouse, in vivo; SEM
mice [3] = test system: mice; design: species or system Kunming mice (ICR mice for intranasal treatment); settings: mouse, in vivo
mice [4] = test system: mice; design: species or system Kunming mice; settings: mouse, in vivo, iv
[5] = in vivo; cited from earlier work

CSCC[C@@H]1NC(=O)[C@H](CC(C)C)NC(=O)[C@H](CCCNC(=N)N)NC(=O)[C@H](CO)NC(=O)[C@@H]2CSSC[C@@H]3NC(=O)[C@H](CO)NC(=O)CNC(=O)[C@H]([C@@H](C)O)NC(=O)[C@H](CSSC[C@H](N)C(=O)N[C@@H](CCCCN)C(=O)NCC(=O)N[C@@H](CCCCN)C(=O)NCC(=O)N[C@@H](C)C(=O)N[C@@H](CCCCN)C(=O)N2)NC(=O)[C@H](CSSC[C@@H](C(N)=O)NC(=O)[C@H](CCCCN)NC(=O)CNC(=O)[C@H](CO)NC(=O)[C@H](CCCNC(=N)N)NC3=O)NC(=O)[C@H](CC(=O)O)NC(=O)[C@H](Cc2ccc(O)cc2)NC1=O [MVIIA, ω-Conotoxin MVIIA]
AUC0-6 in CSF ([1]; iv): 4.98 ± 0.97 µg·min/mL | Cmax in CSF ([1]; iv): 37.78 ± 6.8 ng/mL | Tmax in CSF ([1]; iv): ~ 2 h | bioavailability in CSF following intranasal versus intravenous administration [1]: two fold greater | stay time on rotarod (mice [2]): 74.5 ± 20.28 s | time after which the effect disappeared (mice [3]): ≤ 4 h | time of maximal antinociceptive effect (mice [3]): 1 h | antinociceptive effect (mice [3]; iv): no effect | effect on writhing numbers (mice [4]): failed to attenuate writhing numbers | antinociceptive potency relative to intrathecal morphine [5]: 100 times | potency relative to morphine [5]: 100 times
